# Columns and labels:
# [1] = target: T1, 15-lipoxygenase in primary peripheral blood eosinophils (Homo sapiens, UniProt P16050); experiment: Inhibition of 15-lipoxygenase in human primary eosinophils with short-term exposure, 15-HETE LC-MS/MS; settings: 10 μM for 30 minutes, 3 μM arachidonic acid, 5 minutes
# T1 sequence (P16050 1-662): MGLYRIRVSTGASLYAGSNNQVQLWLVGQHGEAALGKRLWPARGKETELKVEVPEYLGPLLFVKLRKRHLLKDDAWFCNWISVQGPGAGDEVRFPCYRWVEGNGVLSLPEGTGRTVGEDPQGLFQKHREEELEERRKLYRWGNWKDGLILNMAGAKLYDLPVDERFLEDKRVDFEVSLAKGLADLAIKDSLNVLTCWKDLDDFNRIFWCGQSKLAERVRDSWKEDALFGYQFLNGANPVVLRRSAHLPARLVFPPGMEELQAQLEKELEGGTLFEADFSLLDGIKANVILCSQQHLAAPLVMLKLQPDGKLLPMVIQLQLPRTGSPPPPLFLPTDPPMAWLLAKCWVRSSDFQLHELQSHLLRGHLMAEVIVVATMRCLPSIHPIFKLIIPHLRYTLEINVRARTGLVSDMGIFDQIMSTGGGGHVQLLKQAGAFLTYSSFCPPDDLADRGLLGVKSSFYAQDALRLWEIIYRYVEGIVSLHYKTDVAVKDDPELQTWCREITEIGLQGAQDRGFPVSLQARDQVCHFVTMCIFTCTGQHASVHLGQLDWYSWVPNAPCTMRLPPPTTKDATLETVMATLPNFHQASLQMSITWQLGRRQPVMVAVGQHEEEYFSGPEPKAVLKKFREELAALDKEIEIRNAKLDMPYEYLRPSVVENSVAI
# Protocol: Two independent experiments were performed in which primary peripheral blood eosinophils (StemExpress) were thawed from frozen and allowed to recover in growth media for 4 hours at 37° C. […] Arachidonic acid was added to final concentration of 3 μM and experiment started. At 5 minutes post-treatment, the entire reaction was quenched with an equal volume of extraction buffer (methanol, 60 mM ascorbic acid, 0.1% acetic acid) and 15-HETE quantified. Briefly, 15-HETE was quantified using LC-MS/MS (QTrap5500, Applied Biosystems). […] Deuterated 15-HETE (Cayman Chemical) was used as the internal standard. […] Oxidized fatty acids were extracted using liquid/liquid extraction with acetonitrile as a diluent. Reverse chromatography was performed using a Unison UK-C18 column (Imtakt, 50×3 mm i.d., 3 μm, PN: UK-032) using a water/acetonitrile gradient containing 0.05% ammonium hydroxide and 0.1% formic acid.
# [2] = target: T2, ALOX15 in human nasal epithelial primary cells (HNEpC) (Homo sapiens, UniProt P16050); experiment: ALOX15 metabolite levels (15-HETE, 13-HODE) in human nasal epithelial primary cells; type: cell-based; settings: 5 μM or 1 μM
# T2 construct: host or cells: human nasal epithelial primary cells (HNEpC), treated with IL-13
# T2 sequence (P16050 1-662): T1 sequence (P16050 1-662)
# Protocol: Human nasal epithelial primary cells (HNEpC) (PromoCell GmbH, Heidelberg, Germany) were cultured according to the manufacturer in provided Primary Cell media in 24 well plates at a density of 25,000 cells per well. Cells were treated with 5 μM or 1 μM of compound 5 or vehicle only (water) in media containing 20 ng/mL IL-13 for 24 hours in a 37° C. cell culture incubator. The following day, media was replaced and fresh media containing 20 ng/mL IL-13 and compound 5 or vehicle was added to each well, then incubated again for 24 hours in a 37° C. cell culture incubator. The process was repeated once more for a 24-hour period.
# To determine levels of arachidonic acid and linoleic acid metabolites after compound treatment, cell media was replaced with fresh Primary Cell media without IL-13. ALOX15 substrate (arachidonic acid or linoleic acid) was added to each well at a concentration of 1.5 μM and cells further incubated 37° C. for 1 hour. Media was collected from each well and quenched with an equal volume of LC/MS extraction buffer (methanol, 60 mM ascorbic acid, 0.1% acetic acid).
# 15-HETE and 13-HODE were quantified using LC-MS/MS (QTrap5500, Applied Biosystems). Q1/Q3 masses: 319.10/219.10 for 15-HETE and 295.10/195.10 Da for 13-HODE. Deuterated 15-HETE (Cayman Chemical) was used as the internal standard. The Q1/Q3 masses are 327.10/184.10 Da for the 15-HETE deuterated standard. […]
# [3] = target: T3, alkaline phosphatase (Bos taurus, UniProt P19111); experiment: in vitro; type: in vitro ADME, Calf; settings: calf (bovine), pH 8.8
# T3 construct: purchased EMD Millipore 524572
# T3 sequence (P19111 20-506): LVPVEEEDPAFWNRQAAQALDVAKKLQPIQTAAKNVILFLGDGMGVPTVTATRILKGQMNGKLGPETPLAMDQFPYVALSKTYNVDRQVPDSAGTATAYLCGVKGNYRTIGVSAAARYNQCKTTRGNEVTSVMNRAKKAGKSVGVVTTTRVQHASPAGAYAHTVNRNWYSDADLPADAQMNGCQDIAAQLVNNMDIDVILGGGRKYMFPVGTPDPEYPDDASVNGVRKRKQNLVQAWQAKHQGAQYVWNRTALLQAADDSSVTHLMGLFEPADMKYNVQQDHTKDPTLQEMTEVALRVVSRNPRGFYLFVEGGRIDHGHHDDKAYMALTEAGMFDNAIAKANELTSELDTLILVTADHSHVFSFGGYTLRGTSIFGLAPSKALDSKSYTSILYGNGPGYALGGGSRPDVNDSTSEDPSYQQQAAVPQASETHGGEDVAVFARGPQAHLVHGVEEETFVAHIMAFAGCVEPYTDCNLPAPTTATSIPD
# Protocol: (§1) To determine if there was effect of addition phosphatase to the phosphate, 30 units of alkaline phosphatase (EMD Millipore Phosphatase, Alkaline, Calf Intestine catalog number 524572) was added to compound 5 and the UV spectrum (210-600 nm) was measured before and after addition of phosphatase. The was a shift in the absorbance maximum from 250 to 260 nm. The ratio of 250/260 went from 0.924 to 1.067 after phosphatase treatment.
# (§2) Phosphatase treatment was repeated with 0.1 unit of phosphatase (56 ug) and 0.6 mM compound 5 at a volume of 100 uL (100 mM Tris pH 8.8, 5 mM MgCl2) and monitored as function of time. […] A unit is defined as the amount that can hydrolyze 1 μmol/min of p-nitrophenyl phosphate (PNP). Meaning that 0.1 unit of enzyme was hydrolyzing 0.015 units of phosphate: a ˜6.6 fold decrease in activity relative to PNP.
# [4] = target: T4, alkaline phosphatase (Phosphatase, Alkaline, Calf Intestine) (Bos taurus, UniProt P19111); experiment: in vitro; type: in vitro ADME
# T4 construct: purchased EMD Millipore 524572
# T4 sequence (P19111 20-506): as above
# Protocol: as §1, §2
structure (smiles),measurement,setting,value
"O=C(Nc1ccc(F)cc1Cl)c1nn(COP(=O)(O)O)c(Cl)c1Cl [compound 5, (4,5-dichloro-3-((2-chloro-4-fluorophenyl)carbamoyl)-1H-pyrazol-1-yl)methyl dihydrogen phosphate]",less 15-HETE relative to cells treated with vehicle only (FIG. 3),[1]; Experiment 1,approximately 79%
same,less 15-HETE relative to cells treated with vehicle only (FIG. 3),[1]; Experiment 2,63%
same,15-HETE produced versus vehicle alone (FIG. 4),"[2]; 3 x 24 hours with 20 ng/mL IL-13, then 1.5 μM arachidonic acid 1 hour",less
same,13-HODE produced versus vehicle alone (FIG. 5),"[2]; 3 x 24 hours with 20 ng/mL IL-13, then 1.5 μM linoleic acid 1 hour",less
same,half-life at 0.6 mM,[3],2 min
same,decrease in phosphatase activity relative to PNP (p-nitrophenyl phosphate),[4]; 0.1 unit of enzyme hydrolyzing 0.015 units of phosphate,~6.6 fold
same,rate at which the phosphatase cleaved the phosphate,"[4]; 0.1 unit phosphatase, 0.6 mM compound 5, 100 uL",0.015 µmol/min

# Reference: patent publication US11116778B2, “Prodrugs of ALOX-15 inhibitors and methods of using the same” (EMPIRICO INC., priority 2019, dated 2021)
